{"source": "the supplement of paper PMC10307832", "experiment_in_all_cases": "relative viability (nuclei count vs DMSO), 5 days (fraction); higher = more cells survive", "key": {"[1]": {"compound": "Cc1ccc2nc(NCCN)c3ncc(C)n3c2c1 + CC(=O)c1c(C)c2cnc(Nc3ccc(N4CCNCC4)cn3)nc2n(C2CCCC2)c1=O [Palbociclib] (partner 0.5 µM)", "how_it_was_run": "(§1)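 After 5 days of treatment, lung cancer cells in 1536-well plates were fixed and stained in a single step (final 0.05% Triton X-100, 1% formaldehyde, 1 ug/ml Hoechst) and their nuclei counted on 4× images. Treatment had been applied by pin tool the day after seeding as one drug alone or as a fixed anchor-drug dose with five library-drug doses (not always all listed) in √10 steps. Relative viability is the nuclei count of treated wells divided by that of vehicle wells, and values are medians of duplicate plates.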"}, "[2]": {"compound": "Cc1ccc2nc(NCCN)c3ncc(C)n3c2c1 + C[C@]1(O)C[C@@H](c2nc(-c3ccc4ccc(-c5ccccc5)nc4c3)c3c(N)nccn32)C1 [Linsitinib] (partner 1 µM)", "how_it_was_run": "as §1"}, "[3]": {"compound": "Cc1ccc2nc(NCCN)c3ncc(C)n3c2c1 + O=C(c1cc(Cc2n[nH]c(=O)c3ccccc23)ccc1F)N1CCN(C(=O)C2CC2)CC1 [Olaparib] (partner 8 µM)", "how_it_was_run": "as §1"}, "Salubrinal + Crizotinib": {"compound": "O=C(/C=C/c1ccccc1)NC(NC(=S)Nc1cccc2cccnc12)C(Cl)(Cl)Cl [Salubrinal] + C[C@@H](Oc1cc(-c2cnn(C3CCNCC3)c2)cnc1N)c1c(Cl)ccc(F)c1Cl [Crizotinib] (partner 1 µM)", "how_it_was_run": "as §1"}}, "data": [{"cell line": "UMC-11", "values": [{"measurement": "relative viability", "setting": "[1]; first compound 0.04 µM", "result": 0.34}, {"measurement": "relative viability", "setting": "[1]; first compound 0.1265 µM", "result": 0.322}, {"measurement": "relative viability", "setting": "[1]; first compound 0.4 µM", "result": 0.322}, {"measurement": "relative viability", "setting": "[1]; first compound 1.265 µM", "result": 0.317}, {"measurement": "relative viability", "setting": "[1]; first compound 4 µM", "result": 0.341}, {"measurement": "relative viability", "setting": "[2]; first compound 0.04 µM", "result": 1.03}, {"measurement": "relative viability", "setting": "[2]; first compound 0.1265 µM", "result": 0.94}, {"measurement": "relative viability", "setting": "[2]; first compound 0.4 µM", "result": 1}, {"measurement": "relative viability", "setting": "[2]; first compound 1.265 µM", "result": 1.12}, {"measurement": "relative viability", "setting": "[2]; first compound 4 µM", "result": 0.956}, {"measurement": "relative viability", "setting": "[3]; first compound 0.04 µM", "result": 0.376}, {"measurement": "relative viability", "setting": "[3]; first compound 0.1265 µM", "result": 0.355}, {"measurement": "relative viability", "setting": "[3]; first compound 0.4 µM", "result": 0.388}, {"measurement": "relative viability", "setting": "[3]; first compound 1.265 µM", "result": 0.35}, {"measurement": "relative viability", "setting": "[3]; first compound 4 µM", "result": 0.301}, {"measurement": "relative viability", "setting": "Salubrinal + Crizotinib; first compound 0.08 µM", "result": 0.577}, {"measurement": "relative viability", "setting": "Salubrinal + Crizotinib; first compound 0.253 µM", "result": 0.54}, {"measurement": "relative viability", "setting": "Salubrinal + Crizotinib; first compound 0.8 µM", "result": 0.586}, {"measurement": "relative viability", "setting": "Salubrinal + Crizotinib; first compound 2.53 µM", "result": 0.578}, {"measurement": "relative viability", "setting": "Salubrinal + Crizotinib; first compound 8 µM", "result": 0.599}]}]}
